The record followed here is patent US10047096B2, “Substituted pyridobenzodiazepinone-derivatives and use thereof” (Bayer Pharma Aktiengesellschaft, priority 2014, dated 2018).

Each structure is given as a SMILES string. Structures can show the parent of a compound that is named as a salt.

The target in the first test is human PDGFRβ (Homo sapiens (Human), UniProt P09619). Nature of the test: PDGFRβ kinase assay (PDGFRβ-HTRF). The test is classed as biochemical.
human PDGFRβ, sequence (P09619 561-1106): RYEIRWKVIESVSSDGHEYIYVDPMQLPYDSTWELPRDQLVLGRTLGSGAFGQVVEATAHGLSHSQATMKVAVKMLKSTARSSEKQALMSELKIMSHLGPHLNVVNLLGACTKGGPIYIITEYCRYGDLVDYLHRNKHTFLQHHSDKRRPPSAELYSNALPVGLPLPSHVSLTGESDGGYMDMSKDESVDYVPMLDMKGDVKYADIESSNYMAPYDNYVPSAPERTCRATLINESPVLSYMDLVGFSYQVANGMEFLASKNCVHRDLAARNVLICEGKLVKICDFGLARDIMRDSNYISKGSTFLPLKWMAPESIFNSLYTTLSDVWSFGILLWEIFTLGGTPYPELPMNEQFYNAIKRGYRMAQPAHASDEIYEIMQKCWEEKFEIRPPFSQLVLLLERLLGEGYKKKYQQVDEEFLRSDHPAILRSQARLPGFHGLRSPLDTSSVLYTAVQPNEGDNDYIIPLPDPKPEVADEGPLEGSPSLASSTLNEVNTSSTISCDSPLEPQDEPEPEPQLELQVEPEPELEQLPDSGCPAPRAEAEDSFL
Conditions: not given
The gist of the method: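 GST-fused human PDGFRβ fragment (R561-L1106) from Sf9 cells was preincubated 15 min with compound in 50 mM HEPES pH 7.5, 10 mM MgCl2, 2.5 mM DTT, 0.01% Triton X-100; substrate was biotinylated poly-Glu,Tyr (4:1).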
The molecule `Cc1ccc(O)cc1Nc1ccnc2c1C(=O)Nc1cc(CN3CCOCC3)ccc1N2` [Example 41, 4-[(5-Hydroxy-2-methylphenyl)amino]-8-(morpholin-4-ylmethyl)-6,11-dihydro-5H-pyrido[2,3-b][1,5]benzodiazepin-5-one formic acid salt] showed an IC50 of 3.72 nM.

Staying with this test, now noted: 10 μM ATP; some mean values from multiple determinations.
With `CCCc1ccc(Nc2ccnc3c2C(=O)Nc2cc(C#N)ccc2N3)cc1O` [Example 2, 4-[(3-Hydroxy-4-propylphenyl)amino]-5-oxo-6,11-dihydro-5H-pyrido[2,3-b][1,5]benzodiazepine-8-carbonitrile], the half-inhibitory concentration (IC50) came to 862 nM.
Still for that read-out and setting: for `Cc1cc(F)c(Nc2ccnc3c2C(=O)Nc2cc(CN4CCC(C)C(O)C4)ccc2N3)cc1O` (stereo not drawn) [Example 59, 4-[(2-Fluoro-5-hydroxy-4-methylphenyl)amino]-8-[(3-hydroxy-4-methylpiperidin-1-yl)methyl]-6,11-dihydro-5H-pyrido[2,3-b][1,5]benzodiazepin-5-one] the value was 1.82 nM; for `CCN(CCN(C)C)Cc1ccc2c(c1)NC(=O)c1c(Nc3cc(O)c(C)cc3F)ccnc1N2` [Example 199, 8-({[2-(Dimethylamino)ethyl](ethyl)amino}methyl)-4-[(2-fluoro-5-hydroxy-4-methylphenyl)amino]-6,11-dihydro-5H-pyrido[2,3-b][1,5]benzodiazepin-5-one], 1.31 nM.
Molecule `Cc1cc(F)c(Nc2ccnc3c2C(=O)Nc2cc(CN4CC[C@H](N(C)C)C4)ccc2N3)cc1O` [Example 220, 8-{[(3S)-3-(Dimethylamino)pyrrolidin-1-yl]methyl}-4-[(2-fluoro-5-hydroxy-4-methylphenyl)amino]-6,11-dihydro-5H-pyrido[2,3-b][1,5]benzodiazepin-5-one] displayed an IC50 of 2.15 nM.
Turning to `N#Cc1ccc2c(c1)NC(=O)c1c(Nc3cc(O)c(Br)cc3F)ccnc1N2` [Example 7, 4-[(4-Bromo-2-fluoro-5-hydroxyphenyl)amino]-5-oxo-6,11-dihydro-5H-pyrido[2,3-b][1,5]benzodiazepine-8-carbonitrile], the IC50 is 9.47 nM.
Same read-out and setting: for `Cc1cc(F)c(Nc2ccnc3c2C(=O)Nc2cc(CN4CCC(C)(C)CC4)ccc2N3)cc1O` [Example 56, 8-[(4,4-Dimethylpiperidin-1-yl)methyl]-4-[(2-fluoro-5-hydroxy-4-methylphenyl)amino]-6,11-dihydro-5H-pyrido[2,3-b][1,5]benzodiazepin-5-one] the value was 1.49 nM; for `Cc1cc(F)c(Nc2ccnc3c2C(=O)Nc2cc(CN4CC(=O)N(C(C)C)C(C)(C)C4)ccc2N3)cc1O` [Example 196, 4-[(2-Fluoro-5-hydroxy-4-methylphenyl)amino]-8-[(4-isopropyl-3,3-dimethyl-5-oxopiperazin-1-yl)methyl]-6,11-dihydro-5H-pyrido[2,3-b][1,5]benzodiazepin-5-one], 9.38 nM; for `Cc1ccc(O)cc1Nc1ccnc2c1C(=O)Nc1cc(CNC3CCOCC3)ccc1N2` [Example 136], 2.05 nM.
As for `N#Cc1ccc2c(c1)NC(=O)c1c(Nc3cc(O)ccc3Cl)ccnc1N2` [Example 36, 4-[(2-Chloro-5-hydroxyphenyl)amino]-5-oxo-6,11-dihydro-5H-pyrido[2,3-b][1,5]benzodiazepine-8-carbonitrile], half-maximal inhibition (IC50) required 20.1 nM.
Same read-out and setting: for `CCCC1CCN(Cc2ccc3c(c2)NC(=O)c2c(Nc4cc(O)c(C)cc4F)ccnc2N3)CC1` [Example 54, 4-[(2-Fluoro-5-hydroxy-4-methylphenyl)amino]-8-[(4-propylpiperidin-1-yl)methyl]-6,11-dihydro-5H-pyrido[2,3-b][1,5]benzodiazepin-5-one] the value was 6.51 nM.
On the same count and under the same terms, for `CCC(C)CNCc1ccc2c(c1)NC(=O)c1c(Nc3cc(O)ccc3C)ccnc1N2` (stereo not drawn) [Example 153] the value was 3.61 nM.
Still for that read-out and setting: the result for `Cc1cc(F)c(Nc2ccnc3c2C(=O)Nc2cc(CNCCO)ccc2N3)cc1O` [Example 167, 4-[(2-Fluoro-5-hydroxy-4-methylphenyl)amino]-8-{[(2-hydroxyethyl)amino]methyl}-6,11-dihydro-5H-pyrido[2,3-b][1,5]benzodiazepin-5-one] reads 1.31 nM.
With `Cc1ccc(O)cc1Nc1ccnc2c1C(=O)Nc1cc(CNC3CCCNC3=O)ccc1N2` (stereo not drawn) [Example 139], the IC50 came out at 3.58 nM.
Regarding `Cc1ccc(O)cc1Nc1ccnc2c1C(=O)Nc1cc(CN[C@H](C)C3CCCCC3)ccc1N2` [Example 102], inhibition was half-maximal at 1.57 nM (IC50).
`Cc1cc(F)c(Nc2ccnc3c2C(=O)Nc2cc(CN4CCCC(C(N)=O)C4)ccc2N3)cc1O` (racemic) [Example 57, rac-1-({4-[(2-Fluoro-5-hydroxy-4-methylphenyl)amino]-5-oxo-6,11-dihydro-5H-pyrido[2,3-b][1,5]benzodiazepin-8-yl}methyl)piperidine-3-carboxamide]: the IC50 turned out to be 1.66 nM.
`Cc1ccc(O)cc1Nc1ccnc2c1C(=O)Nc1cc(CNCc3ccccc3)ccc1N2` [Example 145] returned an IC50 of 5.82 nM.
`Cc1ccc(O)cc1Nc1ccnc2c1C(=O)Nc1cc(CNCCN3CCCC3=O)ccc1N2` [Example 141] gave an IC50 of 3.48 nM.
Still for that read-out and setting: the result for `N#Cc1ccc2c(c1)NC(=O)c1c(Nc3cccc(O)c3)ccnc1N2` [Example 35, 4-[(3-Hydroxyphenyl)amino]-5-oxo-6,11-dihydro-5H-pyrido[2,3-b][1,5]benzodiazepine-8-carbonitrile] reads 12.6 nM.
The same measure, in the same setting: for `N#Cc1ccc2c(c1)NC(=O)c1c(Nc3cc(O)c(F)cc3F)ccnc1N2` [Example 38, 4-[(2,4-Difluoro-5-hydroxyphenyl)amino]-5-oxo-6,11-dihydro-5H-pyrido[2,3-b][1,5]benzodiazepine-8-carbonitrile] the value was 7.03 nM.
Same read-out and setting: for `Cc1ccc(O)cc1Nc1ccnc2c1C(=O)Nc1cc(CNC(C)C3CC=CCC3)ccc1N2` (stereo not drawn) [Example 100] the value was 1.66 nM.
As for `Cc1ccc(O)cc1Nc1ccnc2c1C(=O)Nc1cc(CNC3CCCC3)ccc1N2` [Example 154], it took 2.1 nM to reach half-maximal inhibition (IC50).
`Cc1cc(F)c(Nc2ccnc3c2C(=O)Nc2cc(C(=O)O)ccc2N3)cc1O` [Example 79, 4-[(2-Fluoro-5-hydroxy-4-methylphenyl)amino]-5-oxo-6,11-dihydro-5H-pyrido[2,3-b][1,5]benzodiazepine-8-carboxylic acid] had an IC50 of 213 nM.
The same measure, in the same setting: the result for `Cc1cc(F)c(Nc2ccnc3c2C(=O)Nc2cc(CN4CCN(C)CC4)ccc2N3)cc1O` [Example 46, 4-[(2-Fluoro-5-hydroxy-4-methylphenyl)amino]-8-[(4-methylpiperazin-1-yl)methyl]-6,11-dihydro-5H-pyrido[2,3-b][1,5]benzodiazepin-5-one] reads 1.52 nM.
On the same count and under the same terms, the result for `Cc1cc(F)c(Nc2ccnc3c2C(=O)Nc2cc(CN4CC[C@@H](N)C4)ccc2N3)cc1O` [Example 216, 8-{[(3R)-3-Aminopyrrolidin-1-yl]methyl}-4-[(2-fluoro-5-hydroxy-4-methylphenyl)amino]-6,11-dihydro-5H-pyrido[2,3-b][1,5]benzodiazepin-5-one] reads 1.12 nM.
The same measure, in the same setting: the result for `Cc1ccc(O)cc1Nc1ccnc2c1C(=O)Nc1cc(CNCC(C)Cn3cccn3)ccc1N2` (stereo not drawn) [Example 114] reads 1.83 nM.

Still in this test, the particulars now being: 10 μM ATP; some mean values from multiple determinations; acetic acid salt.
In the case of `Cc1cc(F)c(Nc2ccnc3c2C(=O)Nc2cc(CNC4CCCC4)ccc2N3)cc1O` [Example 34, 8-[(Cyclopentylamino)methyl]-4-[(2-fluoro-5-hydroxy-4-methylphenyl)amino]-6,11-dihydro-5H-pyrido[2,3-b][1,5]benzodiazepin-5-one acetic acid salt], the IC50 is 5.06 nM.
